Values of other authors as cited in patent US10954181B2, “Process for selectively recovering a phenolic compound from feedstock comprising bio-crude and/or bio-oil” (Research Triangle Institute, priority 2018, dated 2021).

Conditions: 25° C., in water; phenolic compounds present in biocrude
For `Cc1cccc(O)c1C` [2,3-dimethylphenol], the “pKa at 25° C. (in water)” value is given as 10.42.
In the case of `Cc1cc(C)c(O)cc1C` [2,4,5-trimethylphenol], the “pKa at 25° C. (in water)” value is listed as 10.57.
In the case of `Cc1cc(C)c(O)c(C)c1` [2,4,6-trimethylphenol], the “pKa at 25° C. (in water)” value is listed as 10.88.
In the case of `Cc1ccc(O)c(C)c1` [2,4-dimethylphneol], the “pKa at 25° C. (in water)” value is listed as 10.6.
For `Cc1cccc(C)c1O` [2,6-dimethylphenol], the “pKa at 25° C. (in water)” value is listed as 10.66.
In the case of `C=CCc1cc(C)ccc1O` [2-allyl-4-methylphenol], the “pKa at 25° C. (in water)” value is listed as 10.59.
For `CCc1ccccc1O` [2-ethylphenol], the “pKa at 25° C. (in water)” value is listed as 10.27.
In the case of `Cc1cc(C)cc(O)c1` [3,5-dimethylphenol], the “pKa at 25° C. (in water)” value is given as 10.38.
For `CCc1cccc(O)c1` [3-ethylphenol], the “pKa at 25° C. (in water)” value is given as 9.9.
For `Cc1ccc(O)c(O)c1` [4-methylcatechol], the “pKa at 25° C. (in water)” value is listed as 9.91.
In the case of `CCCc1ccc(O)cc1` [4-propylphenol], the “pKa at 25° C. (in water)” value is given as 9.98.
In the case of `CCc1ccc(O)c(OC)c1` [Ethylguaiacol], the “pKa at 25° C. (in water)” value is listed as 10.3.
In the case of `C=CCc1ccc(O)c(OC)c1` [Eugenol], the “pKa at 25° C. (in water)” value is given as 10.19.
In the case of `COc1ccccc1O` [Guaiacol], the “pKa at 25° C. (in water)” value is listed as 9.98.
In the case of `COc1cc(CC(C)=O)ccc1O` [Guaiacylacetone], the “pKa at 25° C. (in water)” value is given as 9.88.
For `COc1cc(CC(=O)O)ccc1O` [Homovanillic acid], the “pKa at 25° C. (in water)” value is given as 4.36.
In the case of `O=C(CO)c1ccccc1` [Hydroxyacetophenone], the “pKa at 25° C. (in water)” value is listed as 10.16.
In the case of `CCCc1ccc(O)c(OC)c1` [Propylguaiacol (Dihydroeugenol), Propylguaiacol], the “pKa at 25° C. (in water)” value is given as 10.29.
In the case of Benzenediol (catechol), the “pKa at 25° C. (in water)” value is listed as 9.96.

Same assay, conditions: Table 1, chemical information of targeted methoxyphenols
In the case of `CCc1ccc(O)c(OC)c1` [Ethylguaiacol], the pKa is listed as 10.3.
For `COc1ccccc1O` [Guaiacol], the pKa is given as 9.98.
For `CCCc1ccc(O)c(OC)c1` [Propylguaiacol (Dihydroeugenol), Propylguaiacol], the pKa is listed as 10.29.
